The values that follow come from paper PMC8921065, “Combination of terbium-161 with somatostatin receptor antagonists—a potential paradigm shift for the treatment of neuroendocrine neoplasms” (European Journal of Nuclear Medicine and Molecular Imaging, 2021).

In data set [1] the test system is AR42J tumor-bearing mice. Particulars: 2 h p.i., 1.0 nmol/mouse, ref Borgna et al., 2021 [11], cited from earlier work.
A short description of another data set: in vivo. Particulars: mouse, iv, total radioactivity.
Data set [2] in a line: Early side effects: relative body weight, organ masses and mass ratios. The format is in vivo, mice. Particulars: at euthanasia. The text has this: At the same time, relevant organs and tissues were collected, and the masses were put into relation to the brain mass of the respective mouse in order to allow the comparison of organ-to-brain and organ-to-body weight ratios among the single treatment groups (Supplementary Material).
Definition of relative body weight (RBW): The RBW was defined as [BWx/ BW0], where BWx is the body weight in gram at a given Day x and BW0 the body weight in gram at Day 0.

For data set [3], the system named is AR42J tumor-bearing mice. In words: Therapy study, therapeutic efficacy. Particulars: for tumor growth delay: day 0 and day 7; for Time frame of euthanasia: end of study day 49.
Method: The therapy study was initiated with mice randomly assigned to five groups (n = 6) when the AR42J tumors reached an average volume of 99 ± 16 mm^3. […] The endpoint criteria were defined according to a scoring system which required euthanasia of mice with a score ≥ 3 (Supplementary Material).
For the subsequent phase, in which the tumors started to regrow, the doubling time of the tumor volume was calculated based on the fitted exponential tumor growth curve. The average ± SD of tumor growth delay and of the doubling time of the tumor volume in single mice, respectively, were compared among groups with a one-way ANOVA with Tukey’s multiple comparisons post-test. The survival times of mice were presented by Kaplan–Meier curves and analyzed using a log-rank test (Mantel-Cox).
Definition of tumor volume (V) and relative tumor volume (RTV): The tumor dimension was determined by measuring the longest tumor axis (L) and its perpendicular axis (W) with a digital caliper. The tumor volume (TV) was calculated according to the equation [V = 0.5 × (L × W^2)]. The relative tumor volume (RTV) was defined as [TVx/TV0], where TVx is the tumor volume in mm^3 at a given Day x and TV0 the tumor volume in mm^3 at Day 0.
Scoring system: Endpoint criteria were defined using a scoring system which required euthanasia of mice with a score ≥3. Every second day, the following criteria were assessed in the mice, assigning a score from 0–3 for each criterion: (i) appearance (general status, skin color, etc.), (ii) behavior (vitality, sociality, crouching etc.), (iii) body weight (stable, loss >5 ≤10%, loss >10 <15%, loss ≥ 15% compared to initial body weight), (iv) tumor size (<800 mm^3, ≥800 and <900 mm^3, ≥900 and <1000 mm^3, ≥1000 mm^3), (v) tumor ulceration. A score ≥3 was for example due to: (i) appearance of wrinkled, translucent skin, (ii) mouse in crouching position and/or apathetic, (iii) a body weight loss of ≥15% of initial body weight, (iv) a tumor volume of ≥1000 mm^3, (iii/iv) a combination of a tumor size of ≥800 mm^3 and body weight loss of ≥10% and/or (v) ulceration of the tumor.
A short description of data set [4]: Early side effects: blood plasma chemistry. The note with it: endpoint of the therapy. The format is in vivo, mice.
For another data set, the system named is metastatic NENs. The note with it: human, in vivo; cited from earlier work.

Values joined by “and” are separate entries in the source; they are usually repeats but may differ in a detail not shown here. Equal entries are not always repeated. Where two headings read alike, the source gives them in different places. Where a SMILES comes first, the peptide text is derived from it. Bridges are numbered along the chain shown (N, C = ends). [ ]: non-standard residue; d: D form. The star is where a group is joined. DOTA = O=C(O)CN1CCN(CC(=O)O)CCN(CC(=O)*)CCN(CC(=O)O)CC1; dPhe(4-NHCONH2) = NC(=O)Nc1ccc(C[C@@H](N)C(=O)O)cc1; Phe(4-Cl) = N[C@@H](Cc1ccc(Cl)cc1)C(=O)O Where only a bound is given, the exact number is not on record here.

On to `C[C@@H](O)[C@@H]1NC(=O)[C@H](CCCCN)NC(=O)[C@@H](Cc2ccc(NC(N)=O)cc2)NC(=O)[C@H](Cc2ccc(O)cc2)NC(=O)[C@H](NC(=O)[C@H](Cc2ccc(Cl)cc2)NC(=O)CN2CCN(CC(=O)O)CCN(CC(=O)O)CCN(CC(=O)O)CC2)CSSC[C@@H](C(=O)N[C@H](Cc2ccc(O)cc2)C(N)=O)NC1=O` [DOTA-LM3], for which the AR42J tumor uptake in the data set with AR42J tumor-bearing mice [1] (listed as [^161Tb]Tb/[^177Lu]Lu-DOTA-LM3) is on record as ~ 18 % IA/g.
Regarding `C[C@@H](O)[C@@H]1NC(=O)[C@H](CCCCN)NC(=O)[C@@H](Cc2c[nH]c3ccccc23)NC(=O)[C@H](Cc2ccc(O)cc2)NC(=O)[C@@H](NC(=O)[C@@H](Cc2ccccc2)NC(=O)CN2CCN(CC(=O)O)CCN(CC(=O)O)CCN(CC(=O)O)CC2)CSSC[C@@H](C(=O)N[C@H](CO)[C@@H](C)O)NC1=O` [DOTATOC, DOTA-[Tyr^3]-octreotide], the tissue uptake at 2 h in the data set “in vivo” (AR42J tumor, 0.04 nmol/mouse) is around 17 %ID/g; in “in vivo” (AR42J tumor, 0.2 nmol/mouse) it was around 15 %ID/g; in “in vivo” (liver), around 0.2 %ID/g. Further, the AR42J tumor uptake in the data set with AR42J tumor-bearing mice [1] (listed as [^161Tb]Tb-/[^177Lu]Lu-DOTATOC) is reported as ~ 8 % IA/g.
`C[C@@H](O)[C@@H]1NC(=O)[C@H](CCCCN)NC(=O)[C@@H](Cc2c[nH]c3ccccc23)NC(=O)[C@H](Cc2ccc(O)cc2)NC(=O)[C@@H](NC(=O)[C@@H](Cc2ccccc2)NC(=O)CN2CCN(CC(=O)O)CCN(CC(=O)O)CCN(CC(=O)O)CC2)CSSC[C@@H](C(=O)N[C@H](CO)[C@@H](C)O)NC1=O` [[^161Tb]Tb-DOTATOC] [metal not drawn]: in data set [2], the “Organ mass Brain” value worked out at 440 ± 23 mg, the “Organ mass Kidneys” value is on record as 352 ± 27 mg, the “Organ mass Liver” value is listed as 1195 ± 57 mg and the “Organ mass Spleen” value is reported as 86 ± 19 mg. In the data set on AR42J tumor-bearing mice [1], the AR42J tumor uptake is 8.2 ± 0.2 % IA/g, the Adrenals uptake was 0.25 ± 0.06 % IA/g, the Blood uptake is at most 0.10 % IA/g and the Femur uptake is at most 0.10 % IA/g. Moreover, in the data set on AR42J tumor-bearing mice [1], the Heart uptake is on record as at most 0.10 % IA/g, the Intestines uptake is given as 0.21 ± 0.13 % IA/g, the Kidneys uptake was 9.9 ± 1.3 % IA/g and the Liver uptake is reported as 0.17 ± 0.01 % IA/g. In addition, in the data set with AR42J tumor-bearing mice [1], the Lung uptake was 0.27 ± 0.03 % IA/g, the Muscle uptake was at most 0.10 % IA/g, the Pancreas uptake is reported as 0.71 ± 0.07 % IA/g and the Spleen uptake is recorded as 0.11 ± 0.02 % IA/g. For the same compound, in the data set with AR42J tumor-bearing mice [1], the Stomach uptake was 0.74 ± 0.38 % IA/g. Besides, in the data set on AR42J tumor-bearing mice [3] (2 × 10 MBq, 0.2 nmol), the tumor growth delay was 9.0 ± 5.5 days and the “Time frame of euthanasia” value is 20 to 26 days. Further, the Median survival with AR42J tumor-bearing mice [3] (mouse, in vivo) came out at 21 days. Besides, in data set [4], the ALB was determined as 23 ± 2 g/L, the ALP was 76 ± 21 U/L, the BUN is listed as 5.8 ± 1.0 mmol/L and the CRE is given as <18 (n=6) µmol/L. Also, the TBIL in data set [4] is < 3 µmol/L and 4 ± 1 µmol/L.
Regarding `C[C@@H](O)[C@@H]1NC(=O)[C@H](CCCCN)NC(=O)[C@@H](Cc2ccc(NC(N)=O)cc2)NC(=O)[C@H](Cc2ccc(O)cc2)NC(=O)[C@H](NC(=O)[C@H](Cc2ccc(Cl)cc2)NC(=O)CN2CCN(CC(=O)O)CCN(CC(=O)O)CCN(CC(=O)O)CC2)CSSC[C@@H](C(=O)N[C@H](Cc2ccc(O)cc2)C(N)=O)NC1=O` [[^177Lu]Lu-DOTA-LM3] [metal not drawn] ({DOTA}-[Phe(4-Cl)][dC]Y[dPhe(4-NHCONH2)]KTC[dY]-NH2; disulfide 2-7 (inferred); C-terminus assumed), in data set [2], the “Organ mass Brain” value is 471 ± 30 mg, the “Organ mass Kidneys” value is recorded as 336 ± 13 mg, the “Organ mass Liver” value turned out to be 1254 ± 106 mg and the “Organ mass Spleen” value came to 92 ± 17 mg. The same compound registered a tumor growth delay in the data set with AR42J tumor-bearing mice [3] (2 × 10 MBq, 0.2 nmol) of 35 ± 7 days. Also, in the data set with AR42J tumor-bearing mice [3] (after the growth delay), the “mice with exponential tumor regrowth” value is reported as 5 out of 6. In the data set with AR42J tumor-bearing mice [3] (mouse, in vivo), the Median survival was determined as 48.5 days and the “mice surviving until the end of the study” value is given as “three out of six mice”. For the same compound, in the data set on AR42J tumor-bearing mice [3] (regrowth phase, 2 × 10 MBq, 0.2 nmol), the “doubling time of the tumor volume” value was determined as 3.8 ± 1.1 days. In addition, in data set [4], the ALB worked out at 23 ± 1 g/L; the ALP amounted to 66 ± 5 U/L; the BUN was 8.2 ± 1.9 mmol/L and 8.2 ± 1.8 mmol/L; the CRE is < 18 µmol/L and 19 µmol/L. Moreover, the TBIL in data set [4] is < 3 µmol/L and 4 ± 1 µmol/L. In addition, in the data set on metastatic NENs, the tolerability in patients result is reported as “well tolerated” and the “tumor doses compared to [177Lu]Lu-DOTATOC” value is recorded as “higher tumor doses”.
As for `C[C@@H](O)[C@@H]1NC(=O)[C@H](CCCCN)NC(=O)[C@@H](Cc2c[nH]c3ccccc23)NC(=O)[C@H](Cc2ccc(O)cc2)NC(=O)[C@@H](NC(=O)[C@@H](Cc2ccccc2)NC(=O)CN2CCN(CC(=O)O)CCN(CC(=O)O)CCN(CC(=O)O)CC2)CSSC[C@@H](C(=O)N[C@H](CO)[C@@H](C)O)NC1=O` [[^177Lu]Lu-DOTATOC] [metal not drawn], in data set [2], the “Organ mass Brain” value came out at 453 ± 31 mg, the “Organ mass Kidneys” value was 342 ± 23 mg, the “Organ mass Liver” value stood at 1121 ± 123 mg and the “Organ mass Spleen” value was 90 ± 17 mg. For the same compound, in the data set with AR42J tumor-bearing mice [1], the AR42J tumor uptake is on record as 8.9 ± 1.5 % IA/g, the Adrenals uptake is given as 0.28 ± 0.08 % IA/g, the Blood uptake is given as at most 0.10 % IA/g and the Femur uptake was at most 0.10 % IA/g. Further, in the data set with AR42J tumor-bearing mice [1], the Heart uptake was at most 0.10 % IA/g, the Intestines uptake was 0.20 ± 0.05 % IA/g, the Kidneys uptake is given as 11 ± 1 % IA/g and the Liver uptake is listed as 0.26 ± 0.07 % IA/g. In the data set with AR42J tumor-bearing mice [1], the Lung uptake was 0.37 ± 0.06 % IA/g, the Muscle uptake was at most 0.10 % IA/g, the Pancreas uptake is on record as 0.80 ± 0.13 % IA/g and the Spleen uptake was 0.15 ± 0.03 % IA/g. Also, the Stomach uptake in the data set with AR42J tumor-bearing mice [1] is 0.65 ± 0.11 % IA/g. Further, in the data set on AR42J tumor-bearing mice [3] (2 × 10 MBq, 0.2 nmol), the tumor growth delay was 6.0 ± 4.4 days and 6 ± 4 days; the “Time frame of euthanasia” value lay in the range of 12 to 22 days. In addition, in the data set with AR42J tumor-bearing mice [3] (mouse, in vivo), the Median survival worked out at 19.5 days. Moreover, in data set [4], the ALB is 24 ± 5 g/L, the ALP was found to be 77 ± 8 U/L, the BUN was 6.3 ± 0.9 mmol/L and the CRE is listed as <18 (n=5) µmol/L. In addition, the TBIL in data set [4] is < 3 µmol/L and 4 ± 1 µmol/L.
